Assay results from ChEMBL document CHEMBL1201862, “PubChem BioAssay data set” (2004).
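Results reflect a 48-hour exposure of cells in 96-well plates to compound at five concentrations. At the GI50, growth is halved.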 Active and inactive are the calls of the source. Rule as the data show it: active = GI50 up to about 1.1 µM and inactive = higher.

Experiments:
Experiment in all cases: inhibition of tumour cell growth, NCI panel, 48 h
[1] = system: UACC-257
[2] = system: NCI-H522
[3] = system: SK-OV-3
[4] = system: HCC 2998
[5] = system: MOLT-4
[6] = system: SF-295
[7] = system: OVCAR-5
[8] = system: HT-29
[9] = system: SN12C
[10] = system: ACHN
[11] = system: SR
[12] = system: COLO 205
[13] = system: EKVX
[14] = system: NCI-H460
[15] = system: DMS-273
[16] = system: A549
[17] = system: HCT-15
[18] = system: SNB-19
[19] = system: HOP-62
[20] = system: NCI-H226
[21] = system: SF-539
[22] = system: SNB-75
[23] = system: SK-MEL-28
[24] = system: DLD-1
[25] = system: Malme-3M
[26] = system: SW-620
[27] = system: SF-268
[28] = system: U-251
[29] = system: HL-60
[30] = system: K562
[31] = system: TK-10
[32] = system: KM-20L2
[33] = system: OVCAR-3
[34] = system: OVCAR-8
[35] = system: CAKI-1
[36] = system: NCI-H23
[37] = system: 786-0
[38] = system: M14
[39] = system: HCT-116
[40] = system: IGROV-1
[41] = system: UACC-62
[42] = system: CCRF-CEM
[43] = system: UO-31
[44] = system: LOX IMVI
[45] = system: SK-MEL-2
[46] = system: RPMI-8226
[47] = system: SK-MEL-5
[48] = system: RXF 393

## CC1CCc2c(sc3ncnc(N/N=C/c4ccc(Cl)cc4)c23)C1 (stereo not drawn)
[1]
  GI50: 29.8 µM (inactive)
[2]
  GI50: 25.9 µM (inactive)
[3]
  GI50: 35.6 µM (inactive)
[4]
  GI50: 48.1 µM (inactive)
[5]
  GI50: 20.6 µM (inactive)
[6]
  GI50: 29.8 µM (inactive)
[7]
  GI50: > 100 µM (inactive)
[8]
  GI50: 38.5 µM (inactive)
[9]
  GI50: 33.4 µM (inactive)
[10]
  GI50: 27.3 µM (inactive)
[11]
  GI50: 21.6 µM (inactive)
[12]
  GI50: 31.6 µM (inactive)
[13]
  GI50: 20.1 µM (inactive)
[14]
  GI50: 29.4 µM (inactive)
[15]
  GI50: 37.4 µM (inactive)
[16]
  GI50: 31 µM (inactive)
[17]
  GI50: 32.3 µM
[18]
  GI50: 30.1 µM (inactive)
[19]
  GI50: 41.9 µM (inactive)
[20]
  GI50: 11.7 µM (inactive)
[21]
  GI50: > 10 µM (inactive)
[22]
  GI50: 78.9 µM (inactive)
[23]
  GI50: 32.3 µM (inactive)
[24]
  GI50: 33.6 µM (inactive)
[25]
  GI50: > 100 µM (inactive)
[26]
  GI50: 35.6 µM (inactive)
[27]
  GI50: 25.1 µM (inactive)
[28]
  GI50: 31.9 µM (inactive)
[29]
  GI50: 19.2 µM (inactive)
[30]
  GI50: 18.6 µM (inactive)
[31]
  GI50: 38.2 µM (inactive)
[32]
  GI50: 22.8 µM (inactive)
[33]
  GI50: 35.4 µM (inactive)
[34]
  GI50: 31.4 µM (inactive)
[35]
  GI50: 40.8 µM (inactive)
[36]
  GI50: 32.8 µM (inactive)
[37]
  GI50: 34.7 µM (inactive)
[38]
  GI50: 28 µM (inactive)
[39]
  GI50: 19.3 µM (inactive)
[40]
  GI50: 53.1 µM (inactive)
[41]
  GI50: 31.1 µM (inactive)
[42]
  GI50: > 10 µM (inactive)
[43]
  GI50: 4.78 µM (inactive)
[44]
  GI50: 22.1 µM (inactive)
[45]
  GI50: 48.8 µM (inactive)
[46]
  GI50: 29.9 µM (inactive)
[47]
  GI50: 17.6 µM (inactive)
[48]
  GI50: 29.6 µM (inactive)
